According to patent US20030199692A1, “Propanoic acid derivatives that inhibit the binding of integrins to their receptors” (priority 1999, published 2003):

Columns and labels:
[1] = molecular target: T1, α4β1 integrin (Homo sapiens, UniProt P05556+P13612); experiment: Inhibition of adhesion of calcein AM-labeled Ramos cells to CS1 (fibronectin) peptide-conjugated ovalbumin; assay type: cell-based; conditions: Ramos cell adhesion to CS1-conjugated ovalbumin, 30 minutes at 37° C.
T1 construct: endogenous in cells; host or cells: Ramos cells
Outline: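 Calcein AM-labeled Ramos cells (2.5×10^5/well) added with or without compound to plates coated with CS1 peptide-ovalbumin conjugate in TBS containing 1 mM each MgCl2, CaCl2, MnCl2; 30 min at 37° C. Adherent cells lysed and quantified fluorometrically after washes; IC50 as dose for 50% inhibition, or percent inhibition at 100 μM.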

T1 sequence (P13612 34-1032): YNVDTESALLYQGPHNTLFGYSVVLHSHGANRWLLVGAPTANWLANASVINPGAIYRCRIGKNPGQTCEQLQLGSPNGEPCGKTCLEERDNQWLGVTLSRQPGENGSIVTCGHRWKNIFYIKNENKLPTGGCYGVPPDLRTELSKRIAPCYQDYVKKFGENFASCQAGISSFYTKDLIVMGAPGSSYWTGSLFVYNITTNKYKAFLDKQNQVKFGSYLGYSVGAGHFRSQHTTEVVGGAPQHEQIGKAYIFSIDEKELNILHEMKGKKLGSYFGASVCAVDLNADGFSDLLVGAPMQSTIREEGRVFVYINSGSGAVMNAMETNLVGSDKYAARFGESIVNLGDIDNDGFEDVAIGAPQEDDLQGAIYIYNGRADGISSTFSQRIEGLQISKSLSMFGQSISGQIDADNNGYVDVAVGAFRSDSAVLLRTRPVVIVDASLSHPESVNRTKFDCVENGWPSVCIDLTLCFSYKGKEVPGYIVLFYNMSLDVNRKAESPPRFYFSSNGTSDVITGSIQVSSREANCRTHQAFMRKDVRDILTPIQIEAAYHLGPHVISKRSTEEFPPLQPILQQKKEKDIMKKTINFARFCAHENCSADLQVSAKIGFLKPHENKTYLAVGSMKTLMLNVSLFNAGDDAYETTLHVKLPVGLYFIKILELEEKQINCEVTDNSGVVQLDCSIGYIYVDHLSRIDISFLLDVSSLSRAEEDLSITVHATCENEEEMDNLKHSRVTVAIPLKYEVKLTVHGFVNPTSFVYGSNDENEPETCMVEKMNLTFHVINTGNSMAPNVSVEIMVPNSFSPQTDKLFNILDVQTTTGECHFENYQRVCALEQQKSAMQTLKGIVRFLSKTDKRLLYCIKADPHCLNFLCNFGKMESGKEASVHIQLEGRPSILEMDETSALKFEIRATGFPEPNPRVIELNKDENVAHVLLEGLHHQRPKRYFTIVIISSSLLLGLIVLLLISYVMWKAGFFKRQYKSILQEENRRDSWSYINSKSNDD
T1 sequence (P05556 21-798): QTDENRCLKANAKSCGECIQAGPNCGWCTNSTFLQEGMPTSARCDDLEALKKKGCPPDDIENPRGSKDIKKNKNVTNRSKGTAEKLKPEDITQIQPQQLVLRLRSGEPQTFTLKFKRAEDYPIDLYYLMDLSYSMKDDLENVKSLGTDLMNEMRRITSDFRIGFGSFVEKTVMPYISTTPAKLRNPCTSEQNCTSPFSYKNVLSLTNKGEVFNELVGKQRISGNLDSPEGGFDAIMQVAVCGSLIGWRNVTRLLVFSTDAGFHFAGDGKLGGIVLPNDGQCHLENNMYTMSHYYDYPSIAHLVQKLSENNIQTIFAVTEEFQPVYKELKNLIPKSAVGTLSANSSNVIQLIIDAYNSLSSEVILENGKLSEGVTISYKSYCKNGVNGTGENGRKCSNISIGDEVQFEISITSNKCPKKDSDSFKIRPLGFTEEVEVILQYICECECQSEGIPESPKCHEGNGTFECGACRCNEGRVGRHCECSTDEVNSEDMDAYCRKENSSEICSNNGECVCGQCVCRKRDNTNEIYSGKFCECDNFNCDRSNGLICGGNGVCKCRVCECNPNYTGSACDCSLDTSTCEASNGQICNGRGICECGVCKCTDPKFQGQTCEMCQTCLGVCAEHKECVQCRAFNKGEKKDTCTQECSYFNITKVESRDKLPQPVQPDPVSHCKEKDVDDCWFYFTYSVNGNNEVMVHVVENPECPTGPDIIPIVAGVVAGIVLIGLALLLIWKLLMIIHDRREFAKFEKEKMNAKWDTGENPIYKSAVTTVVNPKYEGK

| Compound | IC50 ([1]; Table 3) [nM] | IC50 ([1]; Table 4) [nM] | other results |
| --- | --- | --- | --- |
| CCCCC(C(=O)N[C@@H](CC(=O)O)c1ccc2c(c1)OCO2)N1C(=O)N(Cc2ccccc2)C(=O)C1(C)C (stereo partly drawn) [(3S)-3-(1,3-benzodioxol-5-yl)-3-({2-[5,5-dimethyl-2,4-dioxo-3-(phenylmethyl)tetrahydro-1H-imidazol-1-yl]hexanoyl}amino)propanoic acid] | 20000 |  | melting point: 53 to 55 °C |
| CCCCC(C(=O)N[C@@H](CC(=O)O)c1cccc(-c2ccccc2)c1)n1cc(C)cc(Cc2ccccc2)c1=O (stereo partly drawn) [(3S)-3-[1,1′-biphenyl]-3-yl-3-({2-[5-methyl-2-oxo-3-(phenylmethyl)-1(2H)-pyridinyl]hexanoyl}amino)propanoic acid] |  | 250 |  |
| CCCC(C(=O)N[C@@H](CC(=O)O)c1ccc2c(c1)OCO2)n1cccc(Cc2ccccc2)c1=O (stereo partly drawn) [(3S)-3-(1,3-benzodioxol-5-yl)-3-({2-[2-oxo-3-(phenylmethyl)-1(2H)-pyridinyl]pentanoyl}amino)propanoic acid] | 60 |  |  |
| CCCCC(C(=O)N[C@@H](CC(=O)O)c1ccc2c(c1)OCO2)n1cc(C)cc(Cc2ccc(OC)cc2)c1=O (mixture of isomers) [Compound 15, (3S)-3-(1,3-benzodioxol-5-yl)-3-((2R,S)-2-(3-(4-methoxybenzyl)-5-methyl-2-oxo-1(2H)-pyridinyl)hexanoylamino)propanoic acid] |  |  | IC50 ([1]; Table 1): 30 nM |
| CCCCC(C(=O)N[C@@H](CC(=O)O)c1cc(C)cc(C)c1)n1cc(C)cc(Cc2ccccc2)c1=O (stereo partly drawn) [(3S)-3-{[2-(3-benzyl-5-methyl-2-oxopyridin-1(2H)-yl)hexanoyl]amino}-3-(3,5-dimethylphenyl)propanoic acid] |  | 52 |  |
